In patent US9155776B2, “Low frequency glatiramer acetate therapy” (Yeda Research & Development Co., Ltd., priority 2009, dated 2015):
Where two headings read alike, the source gives them in different places.

Assays:
[1] = test system: patients who have experienced a clinically isolated syndrome (CIS); details: 20 mg daily s.c. injection; PCT/US2008/013146; cited from earlier work
[2] = test system: patients who have experienced a clinically isolated syndrome (CIS); details: three s.c. injections over a period of seven days with at least one day between every injection
[3] = test system: subjects with Relapsing-Remitting Multiple Sclerosis (RRMS)
Experimental: The study is designed to select three days a week for injection. Three injections are administered for every seven days and there must be at least one day between each injection.
Eligible subjects are randomized in a 2:1 ratio (40 mg:placebo) and assigned to one of the following three treatment arms: • 1. […] Matching placebo three times weekly (450 subjects)
During the PC phase, subjects are evaluated at study sites for a total of 7 scheduled visits at months: −1 (screening), 0 (baseline), 1, 3, 6, 9, and 12 (End of PC phase).
During the study, the following assessments are performed (regardless of the treatment assignment) at the specified time points: • Vital signs are measured at each study visit. • A physical examination is performed at months −1 (screening), 0 (baseline) 6, 12 (end of PC phase) and every 6 months thereafter. In addition, a physical examination will be performed at the termination visit of the OL phase. • The following safety clinical laboratory tests are performed: • Complete blood count (CBC) with differential—at all scheduled visits in the PC phase, and every 12 months thereafter. In addition this test will be performed at the termination visit of the OL phase. • Serum chemistry (including electrolytes, creatinine, urea and liver enzymes) and urinalysis—at all scheduled visits in the PC phase, and every 12 months thereafter. In addition this test will be performed at the termination visit of the OL phase. • Serum β-hCG in women of child-bearing potential is performed at months −1 (screening), 0 (baseline), 12 (end of PC phase), and every 12 months thereafter. In addition this test will be performed at the termination visit of the OL phase. • ECG is performed at months −1 (screening), 0 (baseline), 12 (end of PC phase), and every 12 months thereafter. In addition an ECG will be performed at the termination visit of the OL phase. • Chest X-ray is performed at month −1 (screening) if not performed within 6 months prior to screening visit. • Adverse Events (AEs) are monitored throughout the study. • Concomitant Medications are monitored throughout the study. • Neurological evaluations, including Neurostatus [Functional Systems (FS), Expanded Disability Status Scale (EDSS), Ambulation Index (AI)] are performed at months −1 (screening), 0 (baseline), 3, 6, 9, 12 (end of PC phase) and every 6 months thereafter. In addition, a neurological examination are performed at the termination visit of the OL phase. • The general health status is assessed by the EuroQoL (EQ5D) questionnaire at months 0 (baseline) and 12 (end of PC phase). • Additional quality of life parameters are assessed by the WPAI (Work Productivity and Activities Impairment) Questionnaire at month 0 (baseline), 3, 6, 9 and 12 (end of PC phase). • All subjects undergo MRI scans at months 0 (13-7 days prior to baseline visit), 6 and 12 (end of PC phase). Following the results of the PC phase, the Sponsor may decide to perform an MRI scan at the termination visit of the OL phase. • Relapses are confirmed/monitored throughout the study.
Route and Dosage Form: • Glatiramer Acetate 40 mg in 1 ml for subcutaneous injection in a pre-filled syringe (PFS), administered three times a week. • Matching placebo injection (mannitol in 1 ml WFI) for subcutaneous injection in a pre-filled syringe (PFS). Outcome Measures: Primary Outcome Measure: • The total number of confirmed relapses during the 12 month PC phase.

MS patients = details: 20 mg/day subcutaneous (s.c.) dose; cited from earlier work
MS = details: controlled clinical trials; cited from earlier work
[4] = 40 mg s.c. three times weekly compared with 20 mg s.c. GA daily administration
[5] = 40 mg s.c. three times weekly vs placebo

In the case of “L-glutamic acid polymer with L-alanine, L-lysine, L-tyrosine, acetate (salt) [GA]”, the “efficacy in treatment of patients who have experienced a clinically isolated syndrome (CIS)” value [1] is given as “has been shown to work”, the “efficacy in treatment of patients who have experienced a clinically isolated syndrome (CIS)” value [2] is given as “expected to work” and the “reduction of subject population annualized relapse rate” value ([3]; 40 mg s.c. three times weekly compared to the placebo group, RRMS subjects) is given as no less than 30%. For the same molecule, the “increasing the proportion of relapse-free subjects during the placebo-controlled phase” value [3, 4] was “at least as effective as 20 mg s.c. GA daily administration”, the “increasing the time to the first confirmed relapse during the placebo-controlled phase” value [3, 4] was “at least as effective as 20 mg s.c. GA daily administration” and the “reducing the change from baseline to month 12 (end of placebo-controlled phase) in EDSS Score” value [3, 4] was “at least as effective as 20 mg s.c. GA daily administration”. For the same molecule, the “reducing the cumulative number of enhancing lesions on T1-weighted images taken at months 6 and 12” value [3, 4] was “at least as effective as 20 mg s.c. GA daily administration”, the “reducing the level of disability as measured by EDSS Score” value [3, 4] was “at least as effective as 20 mg s.c. GA daily administration” and the “reducing the level of disability as measured by EuroQoL (EQ5D) questionnaire” value [3, 4] was “at least as effective as 20 mg s.c. GA daily administration”. The “reducing the level of disability as measured by the work productivity and activities impairment-General Health (WPAI-GH) questionnaire” value [3, 4] was “at least as effective as 20 mg s.c. GA daily administration”, the “reducing the number of new T2 lesions at month 12” value [3, 4] was “at least as effective as 20 mg s.c. GA daily administration” and the “reducing the number of new hypointense lesions on enhanced T1 scans at month 12 as compared to the baseline scan” value [3, 4] was “at least as effective as 20 mg s.c. GA daily administration”. For the same molecule, the “reducing the progression of MRI-monitored disease activity in the patient” value [3, 4] was “at least as effective as 20 mg s.c. GA daily administration”, the “reducing the subject population annualized relapse rate” value [3, 4] was “at least as effective as 20 mg s.c. GA daily administration” and the “reducing the total number of confirmed relapses during the placebo-controlled phase requiring hospitalization and/or IV steroids” value [3, 4] was “at least as effective as 20 mg s.c. GA daily administration”. For the same molecule, the “reducing proportion (%) of subjects with confirmed EDSS progression during the placebo-controlled phase” value ([3]; 40 mg s.c. three times weekly compared with 20 mg s.c. GA daily administration, progression of at least 1 EDSS point sustained for at least 3 months) was “at least as effective as 20 mg s.c. GA daily administration”, the “change from baseline to month (end of placebo-controlled phase) in EDSS Score” value [3, 5] was “significantly reduces” and the “cumulative number of enhancing lesions on T1-weighted images taken at months 6 and 12” value [3, 5] was “significantly reduces”. For the same molecule, the “level of disability as measured by EDSS Score” value [3, 5] was “significantly reduces”, the “level of disability as measured by EuroQoL (EQ5D) questionnaire” value [3, 5] was “significantly reduces” and the “level of disability as measured by the work productivity and activities impairment-General Health (WPAI-GH) questionnaire” value [3, 5] was “significantly reduces”. For the same molecule, the “number of new T2 lesions at month 12” value [3, 5] was “significantly reduces”, the “number of new hypointense lesions on enhanced T1 scans at month 12 as compared to the baseline scan” value [3, 5] was “significantly reduces” and the “progression of MRI-monitored disease activity in the patient” value [3, 5] was “significantly reduces”. For the same molecule, the “proportion of relapse-free subjects during the placebo-controlled phase” value [3, 5] was “significantly increases”, the “time to the first confirmed relapse during the placebo-controlled phase” value [3, 5] was “significantly increases” and the “total number of confirmed relapses during the placebo-controlled phase requiring hospitalization and/or IV steroids” value [3, 5] was “significantly reduces”. For the same molecule, the “proportion (%) of subjects with confirmed EDSS progression during the placebo-controlled phase” value ([3]; 40 mg s.c. three times weekly vs placebo, progression of at least 1 EDSS point sustained for at least 3 months) was “significantly reduces” and the “total number of enhancing lesions in MS patients as measured by MRI” value (MS patients) was “has been shown to reduce”.

B1: IFNβ-1b: immunomodulator (IFNβ 1b) whose efficacy in MS was shown in controlled clinical trials (protein, UniProt P01574 22-187, looked up, variant C17S)
Interferon beta: MSYNLLGFLQRSSNFQSQKLLWQLNGRLEYCLKDRMNFDIPEEIKQLQQFQKEDAALTIYEMLQNIFAIFRQDSSSTGWNETIVENLLANVYHQINHLKTVLEEKLEKEDFTRGKLMSSLHLKRYYGRILHYLKAKEYSHCAWTIVRVEILRNFYFINRLTGYLRN
For B1, the “efficacy in the treatment of MS” value (MS) is given as “demonstrated the efficacy”.
